Assay results reported in PubChem BioAssay (NCI).
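Where inhibition never reached the appropriate level, the endpoint shown equals the highest concentration tested. Otherwise, values were interpolated linearly from a five-concentration, 48-hour dose response in 96-well plates. GI50: concentration for 50% inhibition of growth. The concentration for full growth arrest is given as TGI.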

What was measured:
Experiment in all cases: DTP human tumour cell line panel, 48 h
SW-620 colon = tested on: SW-620 colon
SK-MEL-28 melanoma = tested on: SK-MEL-28 melanoma
CCRF-CEM leukemia = tested on: CCRF-CEM leukemia
K-562 leukemia = tested on: K-562 leukemia
OVCAR-5 ovarian = tested on: OVCAR-5 ovarian
UO-31 renal = tested on: UO-31 renal
HCC-2998 colon = tested on: HCC-2998 colon
HCT-15 colon = tested on: HCT-15 colon
COLO 205 colon = tested on: COLO 205 colon
OVCAR-4 ovarian = tested on: OVCAR-4 ovarian

CC1SC2=NC3=C(c4ccccc4C3=O)C(c3ccc(Cl)cc3)N2C1=O (stereo not given)
TGI (SW-620 colon): > 100 µM
TGI (SK-MEL-28 melanoma): > 100 µM
TGI (CCRF-CEM leukemia): > 100 µM
TGI (K-562 leukemia): > 100 µM
TGI (OVCAR-5 ovarian): > 100 µM
TGI (UO-31 renal): > 100 µM
TGI (HCC-2998 colon): > 100 µM
TGI (HCT-15 colon): > 100 µM
TGI (COLO 205 colon): > 100 µM
TGI (OVCAR-4 ovarian): > 100 µM

Cc1ccc(C(SCC(N)C(=O)O)(c2ccc(C)cc2)c2ccc(C)cc2)cc1 (stereo not given)
GI50 (SW-620 colon): 1.64 µM
TGI (SW-620 colon): 15.8 µM
GI50 (SK-MEL-28 melanoma): 7.47 µM
TGI (SK-MEL-28 melanoma): 22.7 µM
GI50 (CCRF-CEM leukemia): 3.08 µM
TGI (CCRF-CEM leukemia): 55.4 µM
GI50 (K-562 leukemia): 2.96 µM
TGI (K-562 leukemia): 12.3 µM
GI50 (OVCAR-5 ovarian): 9.2 µM
TGI (OVCAR-5 ovarian): > 48.6 µM
GI50 (UO-31 renal): 9.79 µM
TGI (UO-31 renal): 40.4 µM
GI50 (HCC-2998 colon): 2.5 µM
TGI (HCC-2998 colon): 11 µM
GI50 (HCT-15 colon): 4.54 µM
TGI (HCT-15 colon): 27.9 µM
GI50 (COLO 205 colon): 2.14 µM
TGI (COLO 205 colon): 5.62 µM
GI50 (OVCAR-4 ovarian): 11.3 µM
TGI (OVCAR-4 ovarian): > 48.3 µM

Cc1cc(O)ccc1C1=NN(c2ccc(S(C)(=O)=O)cc2)C(=O)CC1
GI50 (SW-620 colon): 3.32 µM
TGI (SW-620 colon): > 100 µM
GI50 (SK-MEL-28 melanoma): 9.55 µM
TGI (SK-MEL-28 melanoma): > 100 µM
GI50 (CCRF-CEM leukemia): 9.09 µM
TGI (CCRF-CEM leukemia): > 100 µM
GI50 (K-562 leukemia): 3.74 µM
TGI (K-562 leukemia): > 100 µM
GI50 (OVCAR-5 ovarian): 53.8 µM
TGI (OVCAR-5 ovarian): > 100 µM
GI50 (UO-31 renal): 14.8 µM
TGI (UO-31 renal): > 100 µM
GI50 (HCC-2998 colon): 46.7 µM
TGI (HCC-2998 colon): > 100 µM
GI50 (HCT-15 colon): 7.91 µM
TGI (HCT-15 colon): > 100 µM
GI50 (COLO 205 colon): 6.62 µM
TGI (COLO 205 colon): 74.4 µM
GI50 (OVCAR-4 ovarian): 76.9 µM
TGI (OVCAR-4 ovarian): > 100 µM

CCCCCCCCCCCCCC(=O)OCC1OC(n2cc(F)c(=O)[nH]c2=O)C(NC(=O)OCc2ccccc2)C(OC(=O)CCCCCCCCCCCCC)C1O (stereo not given)
TGI (SW-620 colon): > 100 µM
TGI (SK-MEL-28 melanoma): > 100 µM
TGI (CCRF-CEM leukemia): > 100 µM
TGI (K-562 leukemia): > 100 µM
TGI (OVCAR-5 ovarian): > 100 µM
TGI (UO-31 renal): > 100 µM
TGI (HCC-2998 colon): > 100 µM
TGI (HCT-15 colon): > 100 µM
TGI (COLO 205 colon): > 100 µM
TGI (OVCAR-4 ovarian): > 100 µM

CC1=NOC(=O)/C1=C/c1cccc2ccccc12
TGI (SW-620 colon): > 100 µM
TGI (SK-MEL-28 melanoma): > 100 µM
TGI (CCRF-CEM leukemia): > 100 µM
TGI (K-562 leukemia): > 100 µM
TGI (OVCAR-5 ovarian): > 100 µM
TGI (UO-31 renal): > 100 µM
TGI (HCC-2998 colon): > 100 µM
TGI (HCT-15 colon): > 100 µM
TGI (COLO 205 colon): > 100 µM
TGI (OVCAR-4 ovarian): > 100 µM

CC(=O)Nc1cc(N(CCOS(C)(=O)=O)CCOS(C)(=O)=O)ccc1N=O
TGI (SW-620 colon): > 100 µM
TGI (SK-MEL-28 melanoma): > 100 µM
TGI (CCRF-CEM leukemia): > 100 µM
TGI (K-562 leukemia): > 100 µM
TGI (OVCAR-5 ovarian): > 100 µM
TGI (UO-31 renal): > 100 µM
TGI (HCC-2998 colon): > 100 µM
TGI (HCT-15 colon): > 100 µM
TGI (COLO 205 colon): > 100 µM
TGI (OVCAR-4 ovarian): > 100 µM

COC(=O)/C(=N\Nc1nc(=S)[nH]n1N)C(C#N)c1ccccc1 (stereo not given)
TGI (SW-620 colon): > 100 µM
TGI (SK-MEL-28 melanoma): > 100 µM
TGI (CCRF-CEM leukemia): > 100 µM
TGI (K-562 leukemia): > 100 µM
TGI (OVCAR-5 ovarian): > 100 µM
TGI (UO-31 renal): > 100 µM
TGI (HCC-2998 colon): > 100 µM
TGI (HCT-15 colon): > 100 µM
TGI (COLO 205 colon): > 100 µM
TGI (OVCAR-4 ovarian): > 100 µM

COc1ccc(C2CC(c3cc(C)ccc3O)=NC(N)=N2)cc1 (stereo not given)
TGI (SW-620 colon): > 100 µM
TGI (SK-MEL-28 melanoma): > 100 µM
TGI (CCRF-CEM leukemia): > 100 µM
TGI (K-562 leukemia): > 100 µM
TGI (OVCAR-5 ovarian): > 100 µM
TGI (UO-31 renal): > 100 µM
TGI (HCC-2998 colon): > 100 µM
TGI (HCT-15 colon): > 100 µM
TGI (COLO 205 colon): > 100 µM
TGI (OVCAR-4 ovarian): > 100 µM

CC(C)(C)C(=O)OCOP(=O)(OCOC(=O)C(C)(C)C)C1CC(O)N(O)C1=O (stereo not given)
GI50 (SW-620 colon): 4.46 µM
TGI (SW-620 colon): > 100 µM
GI50 (SK-MEL-28 melanoma): 2.38 µM
TGI (SK-MEL-28 melanoma): 6.44 µM
GI50 (CCRF-CEM leukemia): 0.777 µM
TGI (CCRF-CEM leukemia): 14.3 µM
GI50 (K-562 leukemia): 3.66 µM
TGI (K-562 leukemia): > 100 µM
GI50 (OVCAR-5 ovarian): 20.4 µM
TGI (OVCAR-5 ovarian): > 100 µM
GI50 (UO-31 renal): 2.92 µM
TGI (UO-31 renal): 37.6 µM
GI50 (HCC-2998 colon): 4.04 µM
TGI (HCC-2998 colon): 49 µM
GI50 (HCT-15 colon): 4.28 µM
TGI (HCT-15 colon): > 100 µM
GI50 (COLO 205 colon): 8.66 µM
TGI (COLO 205 colon): > 100 µM
GI50 (OVCAR-4 ovarian): 17.5 µM
TGI (OVCAR-4 ovarian): > 100 µM

O=C1C(=O)c2c(nc3ccc(Br)cn23)-c2ccccc21
GI50 (SW-620 colon): 0.622 µM
TGI (SW-620 colon): 1.76 µM
GI50 (SK-MEL-28 melanoma): 0.606 µM
TGI (SK-MEL-28 melanoma): 1.56 µM
GI50 (CCRF-CEM leukemia): 1.25 µM
TGI (CCRF-CEM leukemia): 5.18 µM
GI50 (K-562 leukemia): 0.244 µM
TGI (K-562 leukemia): 1.04 µM
GI50 (OVCAR-5 ovarian): 1.78 µM
TGI (OVCAR-5 ovarian): 3.25 µM
GI50 (UO-31 renal): 0.48 µM
TGI (UO-31 renal): 1.24 µM
GI50 (HCC-2998 colon): 1.93 µM
TGI (HCC-2998 colon): 3.51 µM
GI50 (HCT-15 colon): 0.759 µM
TGI (HCT-15 colon): 2.66 µM
GI50 (COLO 205 colon): 1.78 µM
TGI (COLO 205 colon): 3.55 µM
GI50 (OVCAR-4 ovarian): 0.191 µM
TGI (OVCAR-4 ovarian): 0.398 µM

Cc1ccccc1-n1ncc(C(=O)c2ccccc2)c1N
GI50 (SW-620 colon): > 25 µM
TGI (SW-620 colon): > 25 µM
GI50 (SK-MEL-28 melanoma): > 25 µM
TGI (SK-MEL-28 melanoma): > 25 µM
GI50 (CCRF-CEM leukemia): > 25 µM
TGI (CCRF-CEM leukemia): > 25 µM
GI50 (K-562 leukemia): > 25 µM
TGI (K-562 leukemia): > 25 µM
GI50 (OVCAR-5 ovarian): > 25 µM
TGI (OVCAR-5 ovarian): > 25 µM
GI50 (UO-31 renal): > 25 µM
TGI (UO-31 renal): > 25 µM
GI50 (HCC-2998 colon): > 25 µM
TGI (HCC-2998 colon): > 25 µM
GI50 (HCT-15 colon): > 25 µM
TGI (HCT-15 colon): > 25 µM
GI50 (COLO 205 colon): > 25 µM
TGI (COLO 205 colon): > 25 µM
GI50 (OVCAR-4 ovarian): > 25 µM
TGI (OVCAR-4 ovarian): > 25 µM
